The values that follow come from patent publication US9468661B2, “Pyrrolidine derivatives and their use as complement pathway modulators” (priority 2012, dated 2016).

Each structure is given as a SMILES string.

In one assay the target is human factor D (Homo sapiens (Human), UniProt P00746). Description: biochemical. The assay is classed as biochemical. The settings on record: Factor D inhibition data using Method 1; recombinant human factor D 10 nM, substrate Z-Lys-thiobenzyl, fluorescence; read-out: IC50. In outline: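 E. coli-expressed recombinant human factor D (10 nM) was preincubated with compound for 1 h at room temperature in 0.1 M Hepes pH 7.5, 1 mM MgCl2, 1 M NaCl, 0.05% CHAPS. Fluorescence (ex 485/em 535 nm) was read after adding Z-Lys-thiobenzyl (200 μM) and 2,4-dinitrobenzenesulfonyl-fluoresceine (25 μM); IC50 came from percent inhibition versus concentration.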
Sequence of human factor D (P00746 26-253): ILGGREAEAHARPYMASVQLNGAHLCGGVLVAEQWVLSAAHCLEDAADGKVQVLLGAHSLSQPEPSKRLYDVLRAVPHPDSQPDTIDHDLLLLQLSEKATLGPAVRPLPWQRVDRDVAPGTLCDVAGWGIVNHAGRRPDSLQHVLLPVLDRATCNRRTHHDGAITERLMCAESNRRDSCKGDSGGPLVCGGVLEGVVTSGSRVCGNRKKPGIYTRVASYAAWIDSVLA
Turning to `CC(=O)c1nn(CC(=O)N2[C@@H]3C[C@@H]3C[C@H]2C(=O)NC[C@H]2C(C)(C)C2(Cl)Cl)c2ccc(OCc3ncccn3)cc12` [Example 104, (1R,3S,5R)-2-{2-[3-Acetyl-5-(pyrimidin-2-ylmethoxy)-indazol-1-yl]-acetyl}-2-aza-bicyclo[3.1.0] hexane-3-carboxylic acid ((R)-2,2-dichloro-3,3-dimethyl-cyclopropylmethyl)-amide], the IC50 was 16 nM.
Same read-out and setting: next, `CC(=O)c1nn(CC(=O)N2[C@@H]3C[C@@H]3C[C@H]2C(=O)NC[C@H]2CC2(Cl)Cl)c2ccc(OCc3cscn3)cc12` [Example 105, (1R,3S,5R)-2-{2-[3-Acetyl-5-(thiazol-4-ylmethoxy)-indazol-1-yl]-acetyl}-2-aza-bicyclo[3.1.0]hexane-3-carboxylic acid ((R)-2,2-dichloro-cyclopropylmethyl)-amide]: 14 nM.
Consider `CC(=O)c1nn(CC(=O)N2[C@@H]3C[C@@H]3C[C@H]2C(=O)NC[C@H]2CC2(Cl)Cl)c2ccc(OCc3nccs3)cc12` [Example 106, (1R,3S,5R)-2-{2-[3-Acetyl-5-(thiazol-2-ylmethoxy)-indazol-1-yl]-acetyl}-2-aza-bicyclo[3.1.0]hexane-3-carboxylic acid ((R)-2,2-dichloro-cyclopropylmethyl)-amide], for which the IC50 was 5 nM.
On the same count and under the same terms, as for `CC1(C)[C@H](CNC(=O)[C@@H]2C[C@H]3C[C@H]3N2C(=O)Cn2nc(C(N)=O)c3ccccc32)C1(Cl)Cl` [Example 107, 1-(2-{(1R,3S,5R)-3-[((R)-2,2-Dichloro-3,3-dimethyl-cyclopropylmethyl)-carbamoyl]-2-aza-bicyclo[3.1.0]hex-2-yl}-2-oxo-ethyl)-1H-indazole-3-carboxylic acid amide], the figure is 52 nM.
On the same count and under the same terms, as for `NC(=O)c1nn(CC(=O)N2[C@@H]3C[C@@H]3C[C@H]2C(=O)NC[C@H]2CC2(Cl)Cl)c2ccc(OCc3ncccn3)cc12` [Example 110, 1-(2-{(1R,3S,5R)-3-[((R)-2,2-Dichloro-cyclopropylmethyl)-carbamoyl]-2-aza-bicyclo [3.1.0]hex-2-yl}-2-oxo-ethyl)-5-(pyrimidin-2-ylmethoxy)-1H-indazole-3-carboxylic acid amide], the figure is 41 nM.
In the case of `Cc1nccc2c(C(N)=O)nn(CC(=O)N3[C@@H]4C[C@@H]4C[C@H]3C(=O)NC[C@H]3CC3(Cl)Cl)c12` [Example 112, 1-(2-{(1R,3S,5R)-3-[((R)-2,2-Dichloro-cyclopropylmethyl)-carbamoyl]-2-aza-bicyclo[3.1.0]hex-2-yl}-2-oxo-ethyl)-7-methyl-1H-pyrazolo[3,4-c]pyridine-3-carboxylic acid amide], the IC50 amounted to 188 nM.
The same measure, in the same setting: next, `Cc1ccc2c(C(N)=O)nn(CC(=O)N3[C@@H]4C[C@@H]4C[C@H]3C(=O)NC[C@H]3CC3(Cl)Cl)c2c1` [Example 113, 1-(2-{(1R,3S,5R)-3-[((R)-2,2-Dichloro-cyclopropylmethyl)-carbamoyl]-2-aza-bicyclo[3.1.0]hex-2-yl}-2-oxo-ethyl)-6-methyl-1H-indazole-3-carboxylic acid amide]: 74 nM.
Same read-out and setting: next, `NC(=O)c1nn(CC(=O)N2[C@@H]3C[C@@H]3C[C@H]2C(=O)NC[C@H]2CC2(Cl)Cl)c2cc(Cl)ccc12` [Example 114, 6-Chloro-1-(2-{(1R,3S,5R)-3-[((R)-2,2-dichloro-cyclopropylmethyl)-carbamoyl]-2-aza-bicyclo[3.1.0]hex-2-yl}-2-oxo-ethyl)-1H-indazole-3-carboxylic acid amide]: 40 nM.
On to `CC(=O)c1nn(CC(=O)N2[C@@H]3C[C@@H]3C[C@H]2C(=O)NC[C@H]2CC2(Cl)Cl)c2ccc(O)cc12` [Example 122, (1R,3S,5R)-2-[2-(3-Acetyl-5-hydroxy-indazol-1-yl)-acetyl]-2-aza-bicyclo[3.1.0]hexane-3-carboxylic acid ((R)-2,2-dichloro-cyclopropylmethyl)-amide], for which the half-inhibitory concentration (IC50) amounted to 58 nM.
As to `NC(=O)c1nn(CC(=O)N2[C@@H]3C[C@@H]3C[C@H]2C(=O)N[C@H](CO)C23CC(C(F)(F)F)(C2)C3)c2ccccc12` [Example 123, 1-(2-{(1R,3S,5R)-3-[(S)-2-Hydroxy-1-(3-trifluoromethyl-bicyclo[1.1.1]pent-1-yl)-ethylcarbamoyl]-2-aza-bicyclo[3.1.0]hex-2-yl}-2-oxo-ethyl)-1H-indazole-3-carboxylic acid amide], the IC50 was determined as 1240 nM.

The same assay, now with this note: IC50, Factor D inhibition data using Method 1; recombinant human factor D 10 nM, substrate Z-Lys-thiobenzyl, fluorescence.
Turning to `[2H]C([2H])([2H])[C@@H](NC(=O)[C@@H]1C[C@H]2C[C@H]2N1C(=O)Cn1nc(C(N)=O)c2ccccc21)[C@H]1CC1(Cl)Cl` [Example 121, 1-(2-{(1R,3S,5R)-3-[(R)-1-((R)-2,2-Dichloro-cyclopropyl)-ethyl-2,2,2-D3-carbamoyl]-2-aza-bicyclo[3.1.0]hex-2-yl}-2-oxo-ethyl)-1H-indazole-3-carboxylic acid amide], the half-inhibitory concentration (IC50) was found to be 14 nM.
